Reference: ChEMBL document CHEMBL4507268 (2021)

Columns and labels:
[1] = target: Macrophage colony-stimulating factor 1 receptor (Homo sapiens) (UniProt P07333); conditions: Compound concentration 1000.0 nM
[2] = target: Fibroblast growth factor receptor 1 (Homo sapiens) (UniProt P11362); conditions: Compound concentration 1000.0 nM
[3] = target: Insulin-like growth factor 1 receptor (Homo sapiens) (UniProt P08069); conditions: Compound concentration 1000.0 nM
[4] = target: T1, Inhibitor of nuclear factor kappa-B kinase subunit epsilon (Homo sapiens) (UniProt Q14164); conditions: Compound concentration 1000.0 nM
T1 sequence (whole entry): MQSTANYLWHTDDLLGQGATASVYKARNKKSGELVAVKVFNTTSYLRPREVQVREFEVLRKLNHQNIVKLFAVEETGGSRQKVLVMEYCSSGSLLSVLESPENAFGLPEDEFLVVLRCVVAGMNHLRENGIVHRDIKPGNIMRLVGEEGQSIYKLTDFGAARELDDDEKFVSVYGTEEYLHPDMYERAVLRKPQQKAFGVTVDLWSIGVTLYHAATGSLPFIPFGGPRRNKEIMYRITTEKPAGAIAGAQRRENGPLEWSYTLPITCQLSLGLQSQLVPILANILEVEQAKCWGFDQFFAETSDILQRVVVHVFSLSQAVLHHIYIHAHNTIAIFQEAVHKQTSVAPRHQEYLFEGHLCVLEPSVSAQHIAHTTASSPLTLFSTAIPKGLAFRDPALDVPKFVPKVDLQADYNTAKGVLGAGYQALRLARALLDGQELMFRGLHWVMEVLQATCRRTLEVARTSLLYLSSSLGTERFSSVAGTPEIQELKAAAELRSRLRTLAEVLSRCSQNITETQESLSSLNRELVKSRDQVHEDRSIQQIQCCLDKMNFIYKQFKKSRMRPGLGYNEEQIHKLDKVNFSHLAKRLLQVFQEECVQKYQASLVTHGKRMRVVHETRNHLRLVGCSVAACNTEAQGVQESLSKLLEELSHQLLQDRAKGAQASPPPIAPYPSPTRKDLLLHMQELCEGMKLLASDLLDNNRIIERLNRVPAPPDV

[5] = target: T2, Serine/threonine-protein kinase STK11 (Homo sapiens) (UniProt Q15831); conditions: Compound concentration 1000.0 nM
T2 sequence (whole entry): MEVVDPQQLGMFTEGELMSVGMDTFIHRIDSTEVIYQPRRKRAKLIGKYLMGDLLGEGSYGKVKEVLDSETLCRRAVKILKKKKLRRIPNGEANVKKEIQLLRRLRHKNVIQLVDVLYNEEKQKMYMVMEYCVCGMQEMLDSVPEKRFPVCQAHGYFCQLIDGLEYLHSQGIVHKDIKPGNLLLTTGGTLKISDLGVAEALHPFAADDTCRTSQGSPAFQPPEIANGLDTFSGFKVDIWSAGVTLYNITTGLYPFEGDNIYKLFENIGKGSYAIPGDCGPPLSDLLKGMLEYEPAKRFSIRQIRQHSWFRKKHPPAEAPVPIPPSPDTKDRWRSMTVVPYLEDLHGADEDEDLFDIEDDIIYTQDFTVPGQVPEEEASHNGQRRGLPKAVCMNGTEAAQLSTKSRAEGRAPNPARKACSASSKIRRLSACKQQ

[6] = target: Leucine-rich repeat serine/threonine-protein kinase 2 (Homo sapiens) (UniProt Q5S007); conditions: Compound concentration 1000.0 nM
[7] = target: T3, Mitogen-activated protein kinase kinase kinase 3 (Homo sapiens) (UniProt Q99759); conditions: Compound concentration 1000.0 nM
T3 sequence (whole entry): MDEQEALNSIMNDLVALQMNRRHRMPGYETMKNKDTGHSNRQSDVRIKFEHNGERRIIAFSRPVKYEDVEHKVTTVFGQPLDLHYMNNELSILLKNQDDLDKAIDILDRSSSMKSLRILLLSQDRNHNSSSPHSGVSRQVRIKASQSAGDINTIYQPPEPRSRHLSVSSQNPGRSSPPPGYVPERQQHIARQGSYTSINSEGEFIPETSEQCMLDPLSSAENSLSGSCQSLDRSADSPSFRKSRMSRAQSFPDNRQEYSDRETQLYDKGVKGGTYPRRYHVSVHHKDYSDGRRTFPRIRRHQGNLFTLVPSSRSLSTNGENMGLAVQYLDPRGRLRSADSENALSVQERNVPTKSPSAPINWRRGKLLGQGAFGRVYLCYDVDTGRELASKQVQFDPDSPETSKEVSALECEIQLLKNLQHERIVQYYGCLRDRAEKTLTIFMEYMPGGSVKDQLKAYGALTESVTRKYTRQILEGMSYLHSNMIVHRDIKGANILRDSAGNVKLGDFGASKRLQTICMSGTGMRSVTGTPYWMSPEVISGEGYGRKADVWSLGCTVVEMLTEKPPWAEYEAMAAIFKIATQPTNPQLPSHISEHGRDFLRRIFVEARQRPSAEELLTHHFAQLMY

[8] = target: MAP/microtubule affinity-regulating kinase 3 (Homo sapiens) (UniProt P27448); conditions: Compound concentration 1000.0 nM
[9] = target: Cyclin-dependent kinase 16 (Homo sapiens) (UniProt Q00536); conditions: Compound concentration 1000.0 nM
[10] = target: Phosphorylase b kinase gamma catalytic chain, skeletal muscle/heart isoform (Homo sapiens) (UniProt Q16816); conditions: Compound concentration 1000.0 nM
[11] = target: Phosphatidylinositol 4-kinase beta (Homo sapiens) (UniProt Q9UBF8); conditions: Compound concentration 1000.0 nM
[12] = target: Serine/threonine-protein kinase RIO2 (Homo sapiens) (UniProt Q9BVS4); conditions: Compound concentration 1000.0 nM
[13] = target: Ribosomal protein S6 kinase alpha-5 (Homo sapiens) (UniProt O75582); conditions: Compound concentration 1000.0 nM
[14] = target: Ribosomal protein S6 kinase beta-1 (Homo sapiens) (UniProt P23443); conditions: Compound concentration 1000.0 nM
[15] = target: TRAF2 and NCK-interacting protein kinase (Homo sapiens) (UniProt Q9UKE5); conditions: Compound concentration 1000.0 nM
[16] = target: Transient receptor potential cation channel subfamily M member 6 (Homo sapiens) (UniProt Q9BX84); conditions: Compound concentration 1000.0 nM
[17] = target: Serine/threonine-protein kinase WNK1 (Homo sapiens) (UniProt Q9H4A3); conditions: Compound concentration 1000.0 nM
[18] = target: Serine/threonine-protein kinase WNK4 (Homo sapiens) (UniProt Q96J92); conditions: Compound concentration 1000.0 nM
[19] = target: Alpha-2C adrenergic receptor (Homo sapiens) (UniProt P18825); conditions: Compound concentration 10.0 uM
Chain of Alpha-2C adrenergic receptor (Homo sapiens) (P18825 whole entry): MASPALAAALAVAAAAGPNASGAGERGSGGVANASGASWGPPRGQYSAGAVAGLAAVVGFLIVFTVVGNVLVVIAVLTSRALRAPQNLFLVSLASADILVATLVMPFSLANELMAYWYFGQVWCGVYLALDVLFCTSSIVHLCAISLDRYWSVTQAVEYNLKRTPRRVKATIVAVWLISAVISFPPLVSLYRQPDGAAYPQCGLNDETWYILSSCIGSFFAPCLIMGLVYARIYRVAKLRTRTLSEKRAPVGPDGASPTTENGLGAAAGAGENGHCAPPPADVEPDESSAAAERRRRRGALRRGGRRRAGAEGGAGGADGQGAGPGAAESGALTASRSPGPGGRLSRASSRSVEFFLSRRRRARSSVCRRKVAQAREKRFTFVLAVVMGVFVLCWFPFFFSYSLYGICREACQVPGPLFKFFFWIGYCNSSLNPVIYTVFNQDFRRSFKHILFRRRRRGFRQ

Chain of Ribosomal protein S6 kinase alpha-5 (Homo sapiens) (O75582 whole entry, looked up): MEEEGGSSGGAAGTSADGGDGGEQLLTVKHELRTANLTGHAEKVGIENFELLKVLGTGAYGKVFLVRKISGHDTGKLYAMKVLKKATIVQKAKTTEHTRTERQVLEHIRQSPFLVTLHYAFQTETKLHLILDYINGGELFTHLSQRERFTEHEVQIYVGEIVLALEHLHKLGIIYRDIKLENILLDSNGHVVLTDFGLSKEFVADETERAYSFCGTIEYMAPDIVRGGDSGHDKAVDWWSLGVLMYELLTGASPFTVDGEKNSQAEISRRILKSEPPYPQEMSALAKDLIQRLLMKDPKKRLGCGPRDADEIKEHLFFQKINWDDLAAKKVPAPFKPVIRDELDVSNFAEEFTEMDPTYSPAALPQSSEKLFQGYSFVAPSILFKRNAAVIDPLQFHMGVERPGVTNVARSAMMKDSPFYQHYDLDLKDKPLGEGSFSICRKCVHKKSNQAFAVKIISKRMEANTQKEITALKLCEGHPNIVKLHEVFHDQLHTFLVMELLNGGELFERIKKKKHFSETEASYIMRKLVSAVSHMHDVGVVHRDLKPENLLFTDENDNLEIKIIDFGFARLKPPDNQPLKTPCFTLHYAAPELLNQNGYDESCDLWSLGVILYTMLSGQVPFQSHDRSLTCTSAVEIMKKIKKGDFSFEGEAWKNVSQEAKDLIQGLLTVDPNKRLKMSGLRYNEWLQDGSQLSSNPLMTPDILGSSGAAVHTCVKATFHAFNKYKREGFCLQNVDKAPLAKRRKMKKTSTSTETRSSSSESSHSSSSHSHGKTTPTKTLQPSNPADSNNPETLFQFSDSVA
Chain of Serine/threonine-protein kinase WNK4 (Homo sapiens) (Q96J92 whole entry): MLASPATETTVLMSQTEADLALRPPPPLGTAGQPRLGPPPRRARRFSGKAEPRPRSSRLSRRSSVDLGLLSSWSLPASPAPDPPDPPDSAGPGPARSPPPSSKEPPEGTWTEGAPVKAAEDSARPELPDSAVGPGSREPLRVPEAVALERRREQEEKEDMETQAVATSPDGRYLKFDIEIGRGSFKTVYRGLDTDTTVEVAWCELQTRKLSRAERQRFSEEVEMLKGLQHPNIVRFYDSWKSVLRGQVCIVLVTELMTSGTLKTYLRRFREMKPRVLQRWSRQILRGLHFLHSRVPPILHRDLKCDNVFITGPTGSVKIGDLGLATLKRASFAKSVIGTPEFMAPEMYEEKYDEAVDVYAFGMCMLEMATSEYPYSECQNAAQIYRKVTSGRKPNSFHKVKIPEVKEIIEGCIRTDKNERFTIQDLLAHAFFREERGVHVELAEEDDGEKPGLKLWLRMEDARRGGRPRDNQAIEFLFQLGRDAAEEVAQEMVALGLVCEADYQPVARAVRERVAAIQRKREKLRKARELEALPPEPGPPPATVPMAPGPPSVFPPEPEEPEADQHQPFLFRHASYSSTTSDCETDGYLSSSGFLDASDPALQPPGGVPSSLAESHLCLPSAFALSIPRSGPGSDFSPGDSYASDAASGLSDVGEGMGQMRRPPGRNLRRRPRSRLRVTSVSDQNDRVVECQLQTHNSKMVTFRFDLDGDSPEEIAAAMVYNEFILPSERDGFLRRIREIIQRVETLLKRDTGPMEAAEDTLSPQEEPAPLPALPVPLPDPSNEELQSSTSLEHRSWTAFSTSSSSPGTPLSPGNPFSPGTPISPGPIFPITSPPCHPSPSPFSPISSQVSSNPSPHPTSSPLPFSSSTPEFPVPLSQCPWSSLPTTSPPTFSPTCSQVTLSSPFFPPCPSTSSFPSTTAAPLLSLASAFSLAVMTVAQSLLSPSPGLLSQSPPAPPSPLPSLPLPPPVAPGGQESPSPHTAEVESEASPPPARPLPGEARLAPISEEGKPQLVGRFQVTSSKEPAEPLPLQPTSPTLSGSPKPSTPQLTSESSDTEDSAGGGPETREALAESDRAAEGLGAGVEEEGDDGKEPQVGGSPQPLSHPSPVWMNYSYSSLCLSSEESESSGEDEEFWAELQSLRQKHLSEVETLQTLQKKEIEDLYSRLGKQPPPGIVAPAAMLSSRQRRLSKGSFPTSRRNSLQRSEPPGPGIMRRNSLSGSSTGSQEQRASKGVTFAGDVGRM
Chain of Macrophage colony-stimulating factor 1 receptor (Homo sapiens) (P07333 whole entry): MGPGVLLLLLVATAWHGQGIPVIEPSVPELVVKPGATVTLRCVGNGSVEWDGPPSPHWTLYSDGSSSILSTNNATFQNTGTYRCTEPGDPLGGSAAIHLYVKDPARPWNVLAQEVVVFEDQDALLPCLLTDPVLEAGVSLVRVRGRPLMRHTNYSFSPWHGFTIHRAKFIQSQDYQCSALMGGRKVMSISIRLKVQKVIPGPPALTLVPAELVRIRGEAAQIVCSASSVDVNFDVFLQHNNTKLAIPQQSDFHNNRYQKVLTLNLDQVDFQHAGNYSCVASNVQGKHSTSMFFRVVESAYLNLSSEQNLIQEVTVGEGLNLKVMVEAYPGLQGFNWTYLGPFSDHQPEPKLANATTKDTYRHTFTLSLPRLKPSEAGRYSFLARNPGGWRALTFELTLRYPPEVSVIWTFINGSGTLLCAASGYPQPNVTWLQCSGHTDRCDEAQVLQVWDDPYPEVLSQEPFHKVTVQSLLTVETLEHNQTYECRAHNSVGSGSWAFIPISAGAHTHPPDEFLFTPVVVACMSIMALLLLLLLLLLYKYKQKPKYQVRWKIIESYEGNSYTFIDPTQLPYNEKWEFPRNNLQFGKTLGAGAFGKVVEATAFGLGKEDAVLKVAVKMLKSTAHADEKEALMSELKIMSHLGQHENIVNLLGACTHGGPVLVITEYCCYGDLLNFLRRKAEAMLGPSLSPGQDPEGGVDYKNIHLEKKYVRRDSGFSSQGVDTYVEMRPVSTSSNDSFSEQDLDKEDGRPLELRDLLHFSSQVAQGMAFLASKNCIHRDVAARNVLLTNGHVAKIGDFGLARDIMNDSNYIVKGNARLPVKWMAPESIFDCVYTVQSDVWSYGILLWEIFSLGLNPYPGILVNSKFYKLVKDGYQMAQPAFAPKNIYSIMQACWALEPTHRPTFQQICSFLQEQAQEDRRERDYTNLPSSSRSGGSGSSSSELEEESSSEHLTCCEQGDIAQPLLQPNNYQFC
Chain of MAP/microtubule affinity-regulating kinase 3 (Homo sapiens) (P27448 whole entry, looked up): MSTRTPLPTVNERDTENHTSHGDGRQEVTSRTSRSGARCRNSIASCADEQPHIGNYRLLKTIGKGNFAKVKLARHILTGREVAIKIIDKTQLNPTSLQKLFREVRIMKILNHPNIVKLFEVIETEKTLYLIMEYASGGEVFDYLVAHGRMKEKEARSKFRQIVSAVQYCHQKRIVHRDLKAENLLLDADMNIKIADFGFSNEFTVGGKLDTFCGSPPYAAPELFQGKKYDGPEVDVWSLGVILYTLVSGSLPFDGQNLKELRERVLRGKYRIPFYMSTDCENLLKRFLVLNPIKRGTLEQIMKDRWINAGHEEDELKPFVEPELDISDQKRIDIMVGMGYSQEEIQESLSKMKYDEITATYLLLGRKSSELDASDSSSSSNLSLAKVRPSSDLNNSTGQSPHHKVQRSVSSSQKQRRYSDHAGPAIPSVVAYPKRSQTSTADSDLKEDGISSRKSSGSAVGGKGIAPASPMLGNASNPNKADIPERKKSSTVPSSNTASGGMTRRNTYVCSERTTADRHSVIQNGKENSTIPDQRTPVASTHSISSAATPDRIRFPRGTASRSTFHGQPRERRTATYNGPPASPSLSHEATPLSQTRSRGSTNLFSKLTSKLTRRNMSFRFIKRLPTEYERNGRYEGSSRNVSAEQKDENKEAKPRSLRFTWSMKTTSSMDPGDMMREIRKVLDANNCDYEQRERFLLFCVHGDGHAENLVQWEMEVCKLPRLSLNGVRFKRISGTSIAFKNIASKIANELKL
Chain of Phosphatidylinositol 4-kinase beta (Homo sapiens) (Q9UBF8 2-816 limits assumed): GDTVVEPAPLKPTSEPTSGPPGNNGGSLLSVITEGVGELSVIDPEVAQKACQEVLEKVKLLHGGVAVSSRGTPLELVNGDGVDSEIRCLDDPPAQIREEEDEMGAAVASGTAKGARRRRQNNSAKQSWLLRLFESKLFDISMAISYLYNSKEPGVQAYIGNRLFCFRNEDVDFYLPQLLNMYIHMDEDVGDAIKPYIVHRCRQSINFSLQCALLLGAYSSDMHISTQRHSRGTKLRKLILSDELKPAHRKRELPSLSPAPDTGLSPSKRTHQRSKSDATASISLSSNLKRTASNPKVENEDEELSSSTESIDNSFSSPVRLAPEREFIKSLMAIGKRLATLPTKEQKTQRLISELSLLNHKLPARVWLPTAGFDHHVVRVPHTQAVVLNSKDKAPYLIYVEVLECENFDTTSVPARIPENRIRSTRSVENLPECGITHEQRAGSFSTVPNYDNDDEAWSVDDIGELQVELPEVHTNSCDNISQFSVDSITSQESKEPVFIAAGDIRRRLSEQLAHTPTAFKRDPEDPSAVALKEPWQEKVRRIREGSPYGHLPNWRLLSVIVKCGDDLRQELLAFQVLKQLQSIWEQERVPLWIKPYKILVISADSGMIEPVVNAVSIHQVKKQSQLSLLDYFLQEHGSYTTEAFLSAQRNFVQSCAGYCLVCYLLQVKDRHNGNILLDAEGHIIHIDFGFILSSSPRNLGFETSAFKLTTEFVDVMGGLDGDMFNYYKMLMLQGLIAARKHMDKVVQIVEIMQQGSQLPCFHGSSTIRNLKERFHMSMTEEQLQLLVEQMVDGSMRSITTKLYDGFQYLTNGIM

Cc1nc(C2CCN(C(=O)c3ccc(OC(F)(F)F)cc3N)CC2)c2ncc(N3CCN(C)CC3)cc2n1 [BAY-693]
inactive: residual activity [1] 94% | residual activity [2] 100% | residual activity [3] 91% | residual activity [4] 97% | residual activity [5] 100% | residual activity [6] 89% | residual activity [7] 92% | residual activity [8] 89% | residual activity [9] 100% | residual activity [10] 100% | residual activity [11] 84% | residual activity [12] 100% | residual activity [13] 100% | residual activity [14] 99% | residual activity [15] 100% | residual activity [16] 100% | residual activity [17] 94% | residual activity [18] 100% | inhibition [19] -6.01%

CN1CCN(c2cnc3c(C4CCN(C(=O)c5ccc(OC(F)(F)F)cc5N)CC4)ncnc3c2)CC1 [BAY-885]
inactive: residual activity [1] 92% | residual activity [2] 100% | residual activity [3] 100% | residual activity [4] 98% | residual activity [5] 100% | residual activity [6] 100% | residual activity [7] 94% | residual activity [8] 93% | residual activity [9] 100% | residual activity [10] 100% | residual activity [11] 96% | residual activity [12] 100% | residual activity [13] 100% | residual activity [14] 90% | residual activity [15] 100% | residual activity [16] 100% | residual activity [17] 100% | residual activity [18] 99% | inhibition [19] -2.34%
